The record followed here is patent publication US20230220035A1 (DONG-A ST CO., LTD., published 2023).

*1 amine or outer side, *2 acyl side, *3 side chain or, on linkers, in order; H or OH if unused. Side-chain parts run from the residue outwards. [ ]: non-standard residue; d: D form. The star is where a group is joined. C18 diacid = O=C(O)CCCCCCCCCCCCCCCCC(=O)*; γGlu = O=C(O)[C@H](CCC(=O)[*:2])N[*:1]; C14 diacid = O=C(O)CCCCCCCCCCCCC(=O)*; Stearoyl = CCCCCCCCCCCCCCCCCC(=O)*; AEEA = NCCOCCOCC(=O)O; Aib = CC(C)(N)C(=O)O Some results are limits rather than exact numbers.

Usually half-life stands for the time needed for the level to fall by half in the phase considered. As usually defined, the EC50 is the concentration at which the effect is half-maximal.

One series is described as follows: in vivo. The following applies: cynomolgus monkey, sc.
The next series deals with GLP-1 receptor (Homo sapiens, UniProt P43220). The series is described as follows: Human GLP-1 receptor activation assay (CRE-luciferase). Format: cell-based. Further details: host or cells: CHO-K1. The conditions noted are these: for Emax: CHO-K1, 6 h, read-out: GLP-1 receptor Maximum activation (% vs GLP-1); for EC50: CHO-K1 cells transiently transfected, luciferase, 6 hours, 0.1% BSA. On the procedure:
(§1) Then, the resulting increased luciferase activity was evaluated as a measurement of the effect on each receptor activation.
(§2) For positive control, endogenous ligand GLP-1 or glucagon was used for respective evaluation. The above-mentioned acylated oxyntomodulin peptide analogs of Comparative Example 8-12 were synthesized and used as comparative examples.
(§3) After 3 hours of transfection, medium was exchanged to Alpha Minimal Essential Medium (α-MEM) comprising 10% fetal bovine serum (FBS). Next day, the medium was exchanged to α-MEM comprising the acylated oxyntomodulin peptide analog of the present invention and 0.1% bovine serum albumin (BSA). After 6 hours, dual luciferase assay reagent (Promega) was added in the same amount as the medium in which the cells were submerged, and firefly luciferase and Renilla luciferase activities were successively measured. Firefly luciferase activity values were corrected against Renilla luciferase activity to yield transfection efficiency.

A further series concerns the target glucagon receptor (Homo sapiens, UniProt P47871). Nature of the series: Human glucagon receptor activation assay (CRE-luciferase). Format: cell-based. Further details: host or cells: CHO-K1. The following applies: CHO-K1 cells transiently transfected; for Emax: 6 h, relative to glucagon, read-out: GCG receptor Maximum activation (% vs GCG); for EC50: 6 hours, 0.1% BSA, read-out: GCG receptor EC50. On the procedure: as §1, §2, §3

For a further series, the target named is Human GLP-1 receptor (human, UniProt P43220). The series is described as follows: cell-based or functional assay.
For another series, the target named is Human glucagon receptor (human, UniProt P47871). Nature of the series: cell-based or functional assay.

glucagon receptor, sequence (P47871 26-477): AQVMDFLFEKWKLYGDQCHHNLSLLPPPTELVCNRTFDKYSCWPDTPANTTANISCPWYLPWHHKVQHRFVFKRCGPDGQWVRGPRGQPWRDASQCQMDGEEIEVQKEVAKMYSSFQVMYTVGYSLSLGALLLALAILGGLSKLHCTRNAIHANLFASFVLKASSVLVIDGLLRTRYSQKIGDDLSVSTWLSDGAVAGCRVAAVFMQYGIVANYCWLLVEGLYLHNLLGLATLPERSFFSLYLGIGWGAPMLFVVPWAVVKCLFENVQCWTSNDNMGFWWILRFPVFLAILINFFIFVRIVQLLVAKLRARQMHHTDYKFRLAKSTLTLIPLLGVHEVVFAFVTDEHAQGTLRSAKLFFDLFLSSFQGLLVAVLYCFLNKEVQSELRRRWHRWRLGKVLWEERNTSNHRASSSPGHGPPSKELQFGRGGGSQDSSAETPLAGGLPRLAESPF
GLP-1 receptor, sequence (P43220 24-463): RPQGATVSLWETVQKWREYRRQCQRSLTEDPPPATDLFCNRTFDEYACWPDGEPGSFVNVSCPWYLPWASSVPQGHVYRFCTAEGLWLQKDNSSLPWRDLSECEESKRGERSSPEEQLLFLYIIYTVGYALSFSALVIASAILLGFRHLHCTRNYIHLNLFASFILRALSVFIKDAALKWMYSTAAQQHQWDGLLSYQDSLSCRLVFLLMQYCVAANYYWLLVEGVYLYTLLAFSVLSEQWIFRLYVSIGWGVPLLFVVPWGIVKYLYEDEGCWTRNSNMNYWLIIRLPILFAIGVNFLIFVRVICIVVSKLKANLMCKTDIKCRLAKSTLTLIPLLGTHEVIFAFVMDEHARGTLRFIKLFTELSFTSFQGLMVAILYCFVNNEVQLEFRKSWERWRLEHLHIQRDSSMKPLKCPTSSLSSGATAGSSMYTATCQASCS
Description for in vivo: Cynomolgus monkeys were used to evaluate the pharmacokinetics in monkeys of the acylated oxyntomodulin peptide analogs according to the present invention.

Regarding `CCCCCCCCCCCCCCCCCC(=O)N[C@@H](CCC(=O)NCCOCCOCC(=O)NCCOCCOCC(=O)NCCCC[C@H](NC(=O)[C@H](CC(=O)O)NC(=O)[C@H](CO)NC(=O)[C@@H](NC(=O)[C@H](Cc1ccccc1)NC(=O)[C@@H](NC(=O)CNC(=O)[C@H](CCC(N)=O)NC(=O)C(C)(C)NC(=O)[C@@H](N)Cc1c[nH]cn1)[C@@H](C)O)[C@@H](C)O)C(=O)N[C@@H](CO)C(=O)N[C@@H](CCCCN)C(=O)N[C@@H](Cc1ccc(O)cc1)C(=O)N[C@@H](CC(C)C)C(=O)N[C@@H](CC(=O)O)C(=O)NC(C)(C)C(=O)N[C@@H](CCCNC(=N)N)C(=O)N[C@@H](CCCNC(=N)N)C(=O)N[C@@H](C)C(=O)N[C@@H](CCC(N)=O)C(=O)N[C@@H](CC(=O)O)C(=O)N[C@@H](Cc1ccccc1)C(=O)N[C@H](C(=O)N[C@@H](CCC(N)=O)C(=O)N[C@@H](Cc1c[nH]c2ccccc12)C(=O)N[C@@H](CC(C)C)C(=O)N[C@@H](CCSC)C(=O)N[C@@H](CC(N)=O)C(=O)N[C@H](C(=O)N[C@@H](CCCCN)C(=O)N[C@@H](CCC(=O)O)C(=O)N[C@@H](Cc1ccc(O)cc1)C(=O)N[C@@H](CCC(=O)O)C(=O)N[C@@H](CCCCNC(=O)CCCCCCCCCCCCC(N)=O)C(=O)N[C@@H](CCC(=O)O)C(=O)N[C@@H](Cc1ccc(O)cc1)C(=O)N[C@@H](CCC(=O)O)C(=O)O)[C@@H](C)O)C(C)C)C(=O)O` [Compound 10], the half-life is less than 6 h in “in vivo” (Monkey PK (S.C. half-life)) and less than 12 h in the series “in vivo” (monkey PK half-life). In addition, the Emax at GLP-1 receptor stood at 105%; on glucagon receptor it was 110%. In addition, the EC50 on GLP-1 receptor and at glucagon receptor was less than 100 pM in each case.
For the molecule `CCCCCCCCCCCCCCCCCC(=O)N[C@@H](CCC(=O)NCCOCCOCC(=O)NCCOCCOCC(=O)NCCCC[C@H](NC(=O)[C@H](CC(=O)O)NC(=O)[C@H](CO)NC(=O)[C@@H](NC(=O)[C@H](Cc1ccccc1)NC(=O)[C@@H](NC(=O)CNC(=O)[C@H](CCC(N)=O)NC(=O)C(C)(C)NC(=O)[C@@H](N)Cc1c[nH]cn1)[C@@H](C)O)[C@@H](C)O)C(=O)N[C@@H](CO)C(=O)N[C@@H](CCCCN)C(=O)N[C@@H](Cc1ccc(O)cc1)C(=O)N[C@@H](CC(C)C)C(=O)N[C@@H](CC(=O)O)C(=O)NC(C)(C)C(=O)N[C@@H](CCCNC(=N)N)C(=O)N[C@@H](CCCNC(=N)N)C(=O)N[C@@H](C)C(=O)N[C@@H](CCC(N)=O)C(=O)N[C@@H](CC(=O)O)C(=O)N[C@@H](Cc1ccccc1)C(=O)N[C@H](C(=O)N[C@@H](CCC(N)=O)C(=O)N[C@@H](Cc1c[nH]c2ccccc12)C(=O)N[C@@H](CC(C)C)C(=O)N[C@@H](CCSC)C(=O)N[C@@H](CC(N)=O)C(=O)N[C@H](C(=O)N[C@@H](CCCCN)C(=O)N[C@@H](CCC(=O)O)C(=O)N[C@@H](Cc1ccc(O)cc1)C(=O)N[C@@H](CCC(=O)O)C(=O)N[C@@H](CCCCNC(=O)CCCCCCCCCCCCCCC(N)=O)C(=O)N[C@@H](CCC(=O)O)C(=O)N[C@@H](Cc1ccc(O)cc1)C(=O)N[C@@H](CCC(=O)O)C(=O)O)[C@@H](C)O)C(C)C)C(=O)O` [Compound 11], the half-life in the series “in vivo” (Monkey PK (S.C. half-life)) was 6 to 12 h; in the series “in vivo” (monkey PK half-life), less than 12 h. In addition, the values for the Emax on GLP-1 receptor and at glucagon receptor were 92.8% and 98.5%, respectively. Moreover, the concentration for a half-maximal effect (EC50) at GLP-1 receptor and at glucagon receptor was less than 100 pM throughout.
With `CCCCCCCCCCCCCCCCCC(=O)N[C@@H](CCC(=O)NCCOCCOCC(=O)NCCOCCOCC(=O)NCCCC[C@H](NC(=O)[C@H](CC(=O)O)NC(=O)[C@H](CO)NC(=O)[C@@H](NC(=O)[C@H](Cc1ccccc1)NC(=O)[C@@H](NC(=O)CNC(=O)[C@H](CCC(N)=O)NC(=O)C(C)(C)NC(=O)[C@@H](N)Cc1c[nH]cn1)[C@@H](C)O)[C@@H](C)O)C(=O)N[C@@H](CO)C(=O)N[C@@H](CCCCN)C(=O)N[C@@H](Cc1ccc(O)cc1)C(=O)N[C@@H](CC(C)C)C(=O)N[C@@H](CC(=O)O)C(=O)NC(C)(C)C(=O)N[C@@H](CCCNC(=N)N)C(=O)N[C@@H](CCCNC(=N)N)C(=O)N[C@@H](C)C(=O)N[C@@H](CCC(N)=O)C(=O)N[C@@H](CC(=O)O)C(=O)N[C@@H](Cc1ccccc1)C(=O)N[C@H](C(=O)N[C@@H](CCC(N)=O)C(=O)N[C@@H](Cc1c[nH]c2ccccc12)C(=O)N[C@@H](CC(C)C)C(=O)N[C@@H](CCSC)C(=O)N[C@@H](CC(N)=O)C(=O)N[C@H](C(=O)N[C@@H](CCCCN)C(=O)N[C@@H](CCC(=O)O)C(=O)N[C@@H](Cc1ccc(O)cc1)C(=O)N[C@@H](CCC(=O)O)C(=O)N[C@@H](CCCCNC(=O)COCCOCCNC(=O)COCCOCCNC(=O)COCCOCCNC(=O)CCCCCCCCCCCCCCC)C(=O)N[C@@H](CCC(=O)O)C(=O)N[C@@H](Cc1ccc(O)cc1)C(=O)N[C@@H](CCC(=O)O)C(=O)O)[C@@H](C)O)C(C)C)C(=O)O` [Compound 12], the half-life was 6 to 12 h in the series “in vivo” (Monkey PK (S.C. half-life)) and less than 12 h in the series “in vivo” (monkey PK half-life). Moreover, the figures for the Emax at GLP-1 receptor and at glucagon receptor were 102% and 89.6%, respectively. The EC50 at GLP-1 receptor and at glucagon receptor was less than 100 pM throughout.

B1: Compound 1 (peptide)
peptide: H-H[Aib]QGTFTSDK([AEEA-AEEA-γGlu-Stearoyl])SKYLD[Aib]RRAQDFVQWLMNTKEYEK(C14 diacid)EYE-OH
SMILES: CCCCCCCCCCCCCCCCCC(=O)N[C@@H](CCC(=O)NCCOCCOCC(=O)NCCOCCOCC(=O)NCCCC[C@H](NC(=O)[C@H](CC(=O)O)NC(=O)[C@H](CO)NC(=O)[C@@H](NC(=O)[C@H](Cc1ccccc1)NC(=O)[C@@H](NC(=O)CNC(=O)[C@H](CCC(N)=O)NC(=O)C(C)(C)NC(=O)[C@@H](N)Cc1c[nH]cn1)[C@@H](C)O)[C@@H](C)O)C(=O)N[C@@H](CO)C(=O)N[C@@H](CCCCN)C(=O)N[C@@H](Cc1ccc(O)cc1)C(=O)N[C@@H](CC(C)C)C(=O)N[C@@H](CC(=O)O)C(=O)NC(C)(C)C(=O)N[C@@H](CCCNC(=N)N)C(=O)N[C@@H](CCCNC(=N)N)C(=O)N[C@@H](C)C(=O)N[C@@H](CCC(N)=O)C(=O)N[C@@H](CC(=O)O)C(=O)N[C@@H](Cc1ccccc1)C(=O)N[C@H](C(=O)N[C@@H](CCC(N)=O)C(=O)N[C@@H](Cc1c[nH]c2ccccc12)C(=O)N[C@@H](CC(C)C)C(=O)N[C@@H](CCSC)C(=O)N[C@@H](CC(N)=O)C(=O)N[C@H](C(=O)N[C@@H](CCCCN)C(=O)N[C@@H](CCC(=O)O)C(=O)N[C@@H](Cc1ccc(O)cc1)C(=O)N[C@@H](CCC(=O)O)C(=O)N[C@@H](CCCCNC(=O)CCCCCCCCCCCCC(=O)O)C(=O)N[C@@H](CCC(=O)O)C(=O)N[C@@H](Cc1ccc(O)cc1)C(=O)N[C@@H](CCC(=O)O)C(=O)O)[C@@H](C)O)C(C)C)C(=O)O
Consider B1, for which, in the series with Human GLP-1 receptor, the EC50 is less than 100 pM and the “Maximum activation (% vs GLP-1)” value is 102%. Also, in the series with Human glucagon receptor, the EC50 is less than 100 pM and the “Maximum activation (% vs GCG)” value is 107%.

B2: Compound 3 (peptide)
peptide: H-H[Aib]QGTFTSDK([AEEA-AEEA-γGlu-Stearoyl])SKYLD[Aib]RRAQDFVQWLMNTKEYEK(C18 diacid)EYE-OH
SMILES: CCCCCCCCCCCCCCCCCC(=O)N[C@@H](CCC(=O)NCCOCCOCC(=O)NCCOCCOCC(=O)NCCCC[C@H](NC(=O)[C@H](CC(=O)O)NC(=O)[C@H](CO)NC(=O)[C@@H](NC(=O)[C@H](Cc1ccccc1)NC(=O)[C@@H](NC(=O)CNC(=O)[C@H](CCC(N)=O)NC(=O)C(C)(C)NC(=O)[C@@H](N)Cc1c[nH]cn1)[C@@H](C)O)[C@@H](C)O)C(=O)N[C@@H](CO)C(=O)N[C@@H](CCCCN)C(=O)N[C@@H](Cc1ccc(O)cc1)C(=O)N[C@@H](CC(C)C)C(=O)N[C@@H](CC(=O)O)C(=O)NC(C)(C)C(=O)N[C@@H](CCCNC(=N)N)C(=O)N[C@@H](CCCNC(=N)N)C(=O)N[C@@H](C)C(=O)N[C@@H](CCC(N)=O)C(=O)N[C@@H](CC(=O)O)C(=O)N[C@@H](Cc1ccccc1)C(=O)N[C@H](C(=O)N[C@@H](CCC(N)=O)C(=O)N[C@@H](Cc1c[nH]c2ccccc12)C(=O)N[C@@H](CC(C)C)C(=O)N[C@@H](CCSC)C(=O)N[C@@H](CC(N)=O)C(=O)N[C@H](C(=O)N[C@@H](CCCCN)C(=O)N[C@@H](CCC(=O)O)C(=O)N[C@@H](Cc1ccc(O)cc1)C(=O)N[C@@H](CCC(=O)O)C(=O)N[C@@H](CCCCNC(=O)CCCCCCCCCCCCCCCCC(=O)O)C(=O)N[C@@H](CCC(=O)O)C(=O)N[C@@H](Cc1ccc(O)cc1)C(=O)N[C@@H](CCC(=O)O)C(=O)O)[C@@H](C)O)C(C)C)C(=O)O
B2: the “Maximum activation (% vs GLP-1)” value with Human GLP-1 receptor is 98.3%. Besides, the “Maximum activation (% vs GCG)” value in the series with Human glucagon receptor amounted to 98.3%.
Consider H-H[Aib]QGTFTSDK([AEEA-AEEA-γGlu-Stearoyl])SKYLD[Aib]RRAQDFVQWLMNTKEYEK([Lys-C18 diacid])EYE-OH [Compound 4], for which the “Maximum activation (% vs GLP-1)” value with Human GLP-1 receptor worked out at 87.9%. Moreover, in the series with Human glucagon receptor, the EC50 was no less than 1000 pM and the “Maximum activation (% vs GCG)” value amounted to 95.4%.
